Measurements taken from ChEMBL document CHEMBL1131216, “Anhydrolide macrolides. 2. Synthesis and antibacterial activity of 2,3-anhydro-6-O-methyl 11,12-carbazate erythromycin A analogues” (1998).
≈ marks a conversion by molar mass, not a printed value.

Assays:
Type in all cases: functional
Haemophilus influenzae = experiment: In vitro antibacterial activity of DILL strain of Gram negative bacteria Haemophilus influenzae
Streptococcus pneumoniae [1] = experiment: In vitro antibacterial activity of 5649 strain of Gram positive bacteria Streptococcus pneumoniae
Streptococcus pneumoniae [2] = experiment: In vitro antibacterial activity of 5979 strain of Gram positive bacteria Streptococcus pneumoniae
Streptococcus pneumoniae [3] = experiment: In vitro antibacterial activity of ATCC 6303 strain of Gram positive bacteria Streptococcus pneumoniae
Staphylococcus aureus [4] = experiment: In vitro antibacterial activity of A5177 strain of Gram positive bacteria Staphylococcus aureus
Streptococcus pyogenes [5] = experiment: In vitro antibacterial activity of 930 strain of Gram positive bacteria Streptococcus pyogenes
Streptococcus pyogenes [6] = experiment: In vitro antibacterial activity of EES61 strain of Gram positive bacteria Streptococcus pyogenes
Streptococcus pyogenes [7] = experiment: In vitro antibacterial activity of PIU2584 strain of Gram positive bacteria Streptococcus pyogenes
Staphylococcus aureus [8] = experiment: In vitro antibacterial activity of A-5278 strain of Gram positive bacteria Staphylococcus aureus
Staphylococcus aureus [9] = experiment: In vitro antibacterial activity of 6538P strain of Gram positive bacteria Staphylococcus aureus

| Structure (SMILES) | MIC (Haemophilus influenzae) | MIC (Streptococcus pneumoniae [1]) | MIC (Streptococcus pneumoniae [2]) | MIC (Streptococcus pneumoniae [3]) | MIC (Staphylococcus aureus [4]) | MIC (Streptococcus pyogenes [5]) | MIC (Streptococcus pyogenes [6]) | MIC (Streptococcus pyogenes [7]) | MIC (Staphylococcus aureus [8]) | MIC (Staphylococcus aureus [9]) |
| --- | --- | --- | --- | --- | --- | --- | --- | --- | --- | --- |
| CC[C@H]1OC(=O)/C(C)=C/[C@H](C)[C@@H](O[C@@H]2O[C@H](C)C[C@H](N(C)C)[C@H]2O)[C@@](C)(OC)C[C@@H](C)C(=O)[C@H](C)[C@H]2N(NCCc3ccc(Oc4ccccc4)cc3)C(=O)O[C@]12C | > 64 µg/mL | 2 µg/mL (≈ 2.48 µM) | 16 µg/mL (≈ 19.8 µM) | 0.25 µg/mL (≈ 0.309 µM) | 1.56 µg/mL (≈ 1.93 µM) | 8 µg/mL (≈ 9.9 µM) | 0.25 µg/mL (≈ 0.309 µM) | 2 µg/mL (≈ 2.48 µM) | 25 µg/mL (≈ 30.9 µM) | 1.56 µg/mL (≈ 1.93 µM) |
| CC[C@H]1OC(=O)/C(C)=C/[C@H](C)[C@@H](O[C@@H]2O[C@H](C)C[C@H](N(C)C)[C@H]2O)[C@@](C)(OC)C[C@@H](C)C(=O)[C@H](C)[C@H]2N(NCc3ccc(N(C)C)cc3)C(=O)O[C@]12C | 16 µg/mL (≈ 21.5 µM) | 1 µg/mL (≈ 1.34 µM) | > 128 µg/mL | 0.125 µg/mL (≈ 0.168 µM) | 0.2 µg/mL (≈ 0.268 µM) | 128 µg/mL (≈ 172 µM) | 0.125 µg/mL (≈ 0.168 µM) | 1 µg/mL (≈ 1.34 µM) | > 100 µg/mL | 0.2 µg/mL (≈ 0.268 µM) |
| CC[C@H]1OC(=O)/C(C)=C/[C@H](C)[C@@H](O[C@@H]2O[C@H](C)C[C@H](N(C)C)[C@H]2O)[C@@](C)(OC)C[C@@H](C)C(=O)[C@H](C)[C@H]2N(NCCCc3ccccc3N)C(=O)O[C@]12C | 16 µg/mL (≈ 21.5 µM) | – | > 128 µg/mL | 0.03 µg/mL (≈ 0.0403 µM) | 0.39 µg/mL (≈ 0.524 µM) | 128 µg/mL (≈ 172 µM) | 0.06 µg/mL (≈ 0.0805 µM) | 1 µg/mL (≈ 1.34 µM) | > 100 µg/mL | 0.39 µg/mL (≈ 0.524 µM) |
| CC[C@H]1OC(=O)/C(C)=C/[C@H](C)[C@@H](O[C@@H]2O[C@H](C)C[C@H](N(C)C)[C@H]2O)[C@@](C)(OC)C[C@@H](C)C(=O)[C@H](C)[C@H]2N(NCc3ccccn3)C(=O)O[C@]12C | 8 µg/mL (≈ 11.4 µM) | 1 µg/mL (≈ 1.42 µM) | > 128 µg/mL | 0.06 µg/mL (≈ 0.0854 µM) | 0.39 µg/mL (≈ 0.555 µM) | > 128 µg/mL | 0.06 µg/mL (≈ 0.0854 µM) | 1 µg/mL (≈ 1.42 µM) | > 100 µg/mL | 0.39 µg/mL (≈ 0.555 µM) |
| CC[C@H]1OC(=O)/C(C)=C/[C@H](C)[C@@H](O[C@@H]2O[C@H](C)C[C@H](N(C)C)[C@H]2O)[C@@](C)(OC)C[C@@H](C)C(=O)[C@H](C)[C@H]2N(NCCCc3ccc(F)cc3)C(=O)O[C@]12C | 16 µg/mL (≈ 21.4 µM) | 1 µg/mL (≈ 1.34 µM) | 64 µg/mL (≈ 85.6 µM) | 0.06 µg/mL (≈ 0.0802 µM) | 0.2 µg/mL (≈ 0.267 µM) | 64 µg/mL (≈ 85.6 µM) | 0.03 µg/mL (≈ 0.0401 µM) | 1 µg/mL (≈ 1.34 µM) | 50 µg/mL (≈ 66.8 µM) | 0.39 µg/mL (≈ 0.521 µM) |
| CC[C@H]1OC(=O)/C(C)=C/[C@H](C)[C@@H](O[C@@H]2O[C@H](C)C[C@H](N(C)C)[C@H]2O)[C@@](C)(OC)C[C@@H](C)C2=NN3C(=O)O[C@@]1(C)[C@H]3[C@H]2C | > 128 µg/mL | > 128 µg/mL | > 128 µg/mL | > 128 µg/mL | > 100 µg/mL | > 128 µg/mL | > 128 µg/mL | > 128 µg/mL | > 100 µg/mL | > 100 µg/mL |
| CC[C@H]1OC(=O)/C(C)=C/[C@H](C)[C@@H](O[C@@H]2O[C@H](C)C[C@H](N(C)C)[C@H]2O)[C@@](C)(OC)C[C@@H](C)C(=O)[C@H](C)[C@H]2N(NCCCc3ccccc3[N+](=O)[O-])C(=O)O[C@]12C | 8 µg/mL (≈ 10.3 µM) | 1 µg/mL (≈ 1.29 µM) | 128 µg/mL (≈ 165 µM) | 0.03 µg/mL (≈ 0.0387 µM) | 0.01 µg/mL (≈ 0.0129 µM) | 64 µg/mL (≈ 82.6 µM) | 0.03 µg/mL (≈ 0.0387 µM) | 0.5 µg/mL (≈ 0.645 µM) | > 100 µg/mL | 0.1 µg/mL (≈ 0.129 µM) |
| CC[C@H]1OC(=O)/C(C)=C/[C@H](C)[C@@H](O[C@@H]2O[C@H](C)C[C@H](N(C)C)[C@H]2O)[C@@](C)(OC)C[C@@H](C)[C@H]2[C@H](C)[C@H]3N(C(=O)O[C@]13C)N2CCCc1ccccc1 | > 64 µg/mL | 64 µg/mL (≈ 89.6 µM) | 64 µg/mL (≈ 89.6 µM) | 16 µg/mL (≈ 22.4 µM) | 50 µg/mL (≈ 70 µM) | 64 µg/mL (≈ 89.6 µM) | 16 µg/mL (≈ 22.4 µM) | 64 µg/mL (≈ 89.6 µM) | 100 µg/mL (≈ 140 µM) | 100 µg/mL (≈ 140 µM) |
| CC[C@H]1OC(=O)/C(C)=C/[C@H](C)[C@@H](O[C@@H]2O[C@H](C)C[C@H](N(C)C)[C@H]2O)[C@@](C)(OC)C[C@@H](C)C(=O)[C@@H](C)[C@H]2N(NC/C=C/c3ccccc3)C(=O)O[C@]12C | > 64 µg/mL | 4 µg/mL (≈ 5.49 µM) | 16 µg/mL (≈ 22 µM) | 1 µg/mL (≈ 1.37 µM) | 6.2 µg/mL (≈ 8.52 µM) | 16 µg/mL (≈ 22 µM) | 4 µg/mL (≈ 5.49 µM) | 8 µg/mL (≈ 11 µM) | 50 µg/mL (≈ 68.7 µM) | 12.5 µg/mL (≈ 17.2 µM) |
| CC[C@H]1OC(=O)/C(C)=C/[C@H](C)[C@@H](O[C@@H]2O[C@H](C)C[C@H](N(C)C)[C@H]2O)[C@@](C)(OC)C[C@@H](C)C(=O)[C@H](C)[C@H]2N(NCc3ccc(Cl)cc3)C(=O)O[C@]12C | 16 µg/mL (≈ 21.7 µM) | 1 µg/mL (≈ 1.36 µM) | 32 µg/mL (≈ 43.5 µM) | 0.06 µg/mL (≈ 0.0815 µM) | 0.2 µg/mL (≈ 0.272 µM) | 32 µg/mL (≈ 43.5 µM) | 0.03 µg/mL (≈ 0.0407 µM) | 1 µg/mL (≈ 1.36 µM) | 100 µg/mL (≈ 136 µM) | 0.2 µg/mL (≈ 0.272 µM) |

Other lines, results leading:

| MIC (Haemophilus influenzae) | MIC (Streptococcus pneumoniae [1]) | MIC (Streptococcus pneumoniae [2]) | MIC (Streptococcus pneumoniae [3]) | MIC (Staphylococcus aureus [4]) | MIC (Streptococcus pyogenes [5]) | MIC (Streptococcus pyogenes [6]) | MIC (Streptococcus pyogenes [7]) | MIC (Staphylococcus aureus [8]) | MIC (Staphylococcus aureus [9]) | Structure (SMILES) |
| --- | --- | --- | --- | --- | --- | --- | --- | --- | --- | --- |
| 2 µg/mL (≈ 2.56 µM) | 1 µg/mL (≈ 1.28 µM) | > 64 µg/mL | 0.004 µg/mL (≈ 0.00512 µM) | 0.1 µg/mL (≈ 0.128 µM) | > 64 µg/mL | 0.004 µg/mL (≈ 0.00512 µM) | 0.5 µg/mL (≈ 0.64 µM) | > 100 µg/mL | 0.2 µg/mL (≈ 0.256 µM) | CC[C@H]1OC(=O)/C(C)=C/[C@H](C)[C@@H](O[C@@H]2O[C@H](C)C[C@H](N(C)C)[C@H]2O)[C@@](C)(OC)C[C@@H](C)C(=O)[C@H](C)[C@H]2N(NCCCc3ccnc4ccccc34)C(=O)O[C@]12C |
| 8 µg/mL (≈ 11.4 µM) | 1 µg/mL (≈ 1.42 µM) | > 64 µg/mL | 0.06 µg/mL (≈ 0.0854 µM) | 0.39 µg/mL (≈ 0.555 µM) | > 64 µg/mL | 0.03 µg/mL (≈ 0.0427 µM) | 1 µg/mL (≈ 1.42 µM) | > 100 µg/mL | 0.39 µg/mL (≈ 0.555 µM) | CC[C@H]1OC(=O)/C(C)=C/[C@H](C)[C@@H](O[C@@H]2O[C@H](C)C[C@H](N(C)C)[C@H]2O)[C@@](C)(OC)C[C@@H](C)C(=O)[C@H](C)[C@H]2N(NCc3cccnc3)C(=O)O[C@]12C |
| 8 µg/mL (≈ 11.4 µM) | 1 µg/mL (≈ 1.42 µM) | > 64 µg/mL | 0.06 µg/mL (≈ 0.0855 µM) | 0.2 µg/mL (≈ 0.285 µM) | > 64 µg/mL | 0.03 µg/mL (≈ 0.0427 µM) | 1 µg/mL (≈ 1.42 µM) | > 100 µg/mL | 0.39 µg/mL (≈ 0.556 µM) | CC[C@H]1OC(=O)/C(C)=C/[C@H](C)[C@@H](O[C@@H]2O[C@H](C)C[C@H](N(C)C)[C@H]2O)[C@@](C)(OC)C[C@@H](C)C(=O)[C@H](C)[C@H]2N(NCc3ccccc3)C(=O)O[C@]12C |
| 4 µg/mL (≈ 5.57 µM) | 1 µg/mL (≈ 1.39 µM) | > 128 µg/mL | 0.03 µg/mL (≈ 0.0418 µM) | 0.1 µg/mL (≈ 0.139 µM) | > 128 µg/mL | 0.03 µg/mL (≈ 0.0418 µM) | 0.5 µg/mL (≈ 0.696 µM) | > 100 µg/mL | 0.2 µg/mL (≈ 0.279 µM) | CC[C@H]1OC(=O)/C(C)=C/[C@H](C)[C@@H](O[C@@H]2O[C@H](C)C[C@H](N(C)C)[C@H]2O)[C@@](C)(OC)C[C@@H](C)C(=O)[C@H](C)[C@H]2N(NCc3cccc(O)c3)C(=O)O[C@]12C |
| 2 µg/mL (≈ 2.79 µM) | 2 µg/mL (≈ 2.79 µM) | > 64 µg/mL | 0.06 µg/mL (≈ 0.0836 µM) | 0.2 µg/mL (≈ 0.279 µM) | > 64 µg/mL | 0.03 µg/mL (≈ 0.0418 µM) | 0.5 µg/mL (≈ 0.696 µM) | > 100 µg/mL | 0.2 µg/mL (≈ 0.279 µM) | CC[C@H]1OC(=O)/C(C)=C/[C@H](C)[C@@H](O[C@@H]2O[C@H](C)C[C@H](N(C)C)[C@H]2O)[C@@](C)(OC)C[C@@H](C)C(=O)[C@H](C)[C@H]2N(NCc3ccccc3O)C(=O)O[C@]12C |
| 4 µg/mL (≈ 5.36 µM) | 1 µg/mL (≈ 1.34 µM) | > 64 µg/mL | 0.004 µg/mL (≈ 0.00536 µM) | 0.1 µg/mL (≈ 0.134 µM) | > 64 µg/mL | 0.004 µg/mL (≈ 0.00536 µM) | 0.25 µg/mL (≈ 0.335 µM) | > 100 µg/mL | 0.2 µg/mL (≈ 0.268 µM) | CC[C@H]1OC(=O)/C(C)=C/[C@H](C)[C@@H](O[C@@H]2O[C@H](C)C[C@H](N(C)C)[C@H]2O)[C@@](C)(OC)C[C@@H](C)C(=O)[C@H](C)[C@H]2N(NCCCc3ccc(O)cc3)C(=O)O[C@]12C |
